In data set [1] the test system is MB004 tumors. The procedure:
Mouse subcutaneous and orthotopic xenograft. Athymic Ncr-nu/nu female mice (6-7 weeks old) were subcutaneously injected with 10,000 MB004 cells. Mice were weighed and distributed in two groups (control and 6-thio-dG). After tumor-establishment (day 23-24 post-implantation) with an average volume of 100-200 mm3, mice were injected intraperitoneally (i.p) every 2 days with 6-thio-dG (2.5 mg/kg) or DMSO-PBS (vehicle) for 3-4 weeks until euthanization. Tumors were measured by slide calipers taking two longest tumor-diameters (length and width) perpendicular to each other and volumes were calculated by using the formula: (π/6)×d3, where d=mean diameter. For orthotopic xenograft, CCHMC-DIPG-1 luciferase-positive cells (10,000) were injected in the brain of NRG (NOD.Cg-Rag1tm1Mom Il2rgtm1Wjl/SzJ) mice. Briefly, mice were injected stereotactically with 2 μl medium containing 10,000 luciferase-positive cells. The coordinates for injection were 0.8-1 mm posterior to lambda suture and 3.5 mm deep, corresponding to the pons location in the brain. Tumors were visualized by luminescence using IVIS Spectrum CT in vivo imaging system (PerkinElmer). All animal procedures were approved by the Institutional Animal Care and Use Committee (IACUC) (protocol #IACUC2015-0066, CCHMC).
Immunohistochemistry. Formalin-fixed paraffin-embedded (FFPE) sections were deparaffinized in xylene followed by rehydration through a graded ethanol concentration series. Heat-induced antigen retrieval was performed by steaming slides for 20 minutes in 10 mM Citrate buffer (pH 6.0). […] Slides were washed with TBST (×3) and were treated with biotinylated anti-rabbit secondary antibody (1:500) and signal-amplified using ABC Kit (Vector Laboratories). Signal was visualized with DAB (Vector Laboratories) and counterstained with Harris Hematoxylin (Sigma). H & E staining was performed using hematoxylin-1 and eosin-Y (Thermo Scientific). Tissues were mounted with Permount (Fisher Scientific) and imaged by Nikon eclipse 80i microscope.
Tissue TIF assay. Tissue samples were pre-fixed with 4% PFA and were cryo-protected in 25% sucrose/PBS solution, then embedded in OCT freezing molds with Neg-50 (VWR) in acetone and dry ice followed by cryo-sectioning. Heat-induced antigen retrieval and Telomere-FISH was performed as described above. The samples were incubated in blocking solution (5% donkey serum, 0.3% Triton X-100 in TBS) for 30 minutes and treated with anti-53BP1 (rabbit 1:500; Novus Biologicals) for 1 hour at room temperature. After washing in TBST (×3), the samples were incubated with secondary antibody Alexa-Fluor 488-conjugated donkey anti-rabbit (1:400; Jackson ImmunoResearch), and washed in TBS (×3). The samples were embedded in mounting media with DAPI (Vector Laboratories H1200). Images were captured with 60× oil objective on Nikon Eclipse Ti confocal microscope.

The subject of data set [2] is HFF+hTERT cells. As to the kind of experiment: Immunofluorescence and telomere FISH (TIF) assay. The format is cell-based, human. Here is the method: (§1) Immunofluorescence and telomere FISH assay. Cells were fixed with 4% paraformaldehyde (PFA) for 15 minutes. Cells were then washed, permeabilized with 0.5% Triton-X-100 in PBS, blocked with 5% donkey serum and 0.3% Triton X-100 in TBS and incubated with primary antibodies against γH2A.X (1:500, rabbit), or cleaved caspase-3 (1:400, rabbit) (Cell Signaling); and/or TRF2 (1:200) (Mouse; NOVUS), as applicable, for overnight followed by TBST wash (×3) next day. Corresponding secondary antibodies were added (Alexa-Fluor 488- or 594-conjugated donkey anti-rabbit, or anti-mouse (1:500) (Jackson ImmunoResearch) for 1 hour and washed with TBS (×3) before mounting. For telomere-FISH, fixed and permeabilized cells were dehydrated with a graded ethanol concentration series, air-dried and covered with hybridization solution (70% formamide, 0.5% Blocking Reagent (Roche Diagnostics) diluted in 100 mM maleic acid and 150 mM sodium chloride, and 10 mM Tris (pH 7.5)) with 300 ng/mL PNA(CCCTAA)3-Cy3 (SEQ ID NO: 1) (Biosynthesis, USA), and denatured for 6 minutes at 84° C. followed by hybridization for at least two hours at room temperature. Cells were washed three times with 70% formamide and 10 mM Tris (pH 7.5) and three times with TBS. Finally, they were embedded with mounting media with DAPI (Vector Laboratories H1200).

The test system of data set [3] is MB004 cells. The data set is described as follows: Immunofluorescence and telomere FISH (TIF) assay. Type of data set: cell-based, human. Particulars: 3 μM 2 days, then 3 days continuous or discontinuous treatment. Here is the method: as §1
Data set [4] relates to HFF cells. As to the kind of experiment: Immunofluorescence and telomere FISH (TIF) assay. The format is cell-based, human. Here is the method: as §1
Data set [5] relates to telomerase-positive cells including brain tumor cells. The data set is described as follows: Cell growth assay, panel of telomerase-positive cells. Type of data set: cell-based, human. The procedure: (§2) Cell growth and sphere formation assay. After dissociating primary neurospheres by TrypLE express (Gibco), single cells were seeded in respective growth media in 6-well plates and were incubated for one week at varying concentrations (0.5 to 10 μM) of 6-thio-dG or DMSO. Fresh culture media were added every three days. Viable cell numbers were determined by trypan blue exclusion method. For sphere formation assay, MB004 single cells were seeded in limited dilution (10 cells/well in 96-well plate) and treated with DMSO or 6-thio-dG. Sphere formation was monitored by microscopy.

For data set [6], the system named is MB004 cells. As to the kind of experiment: Cell cycle analysis (PI flow cytometry). Particulars: 3 μM for 3 days. The format is cell-based, human. Here is the method: (§3) Cell cycle analysis. […] Cells were then washed and stained with propidium iodide (PI) solution containing 25 μg/mL PI (Sigma), and 100 μg/mL Ribonuclease-A (Sigma) for 30 minutes in the dark. Flow cytometry was performed on BD FACS Canto II and cells were analyzed using FlowJo v.10 (FlowJo, USA) software.
(A flow cytometer gives signals particle by particle.)

Data set [7] has as its system HeLa cells. As to the kind of experiment: Cell cycle analysis (PI flow cytometry). The format is cell-based, human. The procedure: as §3
The subject of data set [8] is MB004 cells. As to the kind of experiment: Sphere formation assay. Type of data set: cell-based, human. The following applies: 3 μM, day 7. Here is the method: as §2
The conditions of data set [9]: cited from earlier work.
Where [10] appears, read: 2.5 mg/kg i.p. every 2 days for 3-4 weeks.
Where [11] appears, read: 2.5 mg/kg i.p. every 2 days, vs untreated group.

We go through one compound from patent US12594293B2, “Use of 6-thio-dG to treat therapy-resistant telomerasepositive pediatric brain tumors” (The Board of Regents of The University of Texas System, priority 2018, dated 2026).

One may read the IC50 as the concentration that inhibits the measured activity by half. Lower therefore signals higher potency.

Consider `Nc1nc2c(ncn2[C@H]2C[C@H](O)[C@@H](CO)O2)c(=S)[nH]1` [6-thio-dG, 6-thio-2′-deoxyguanosine], for which, in data set [1] (2.5 mg/kg i.p. every 2 days), the “in-tumor cells with at least 1-3 TIFs” value is on record as “More than 21%” and the “population of cells with 4-6 TIFs per cell” value is recorded as “detected only in treated tumors”. Further, in data set [1] (setting [10]), the “treated mice with fast tumor growth” value was “Two out of six” and the “treated mice with reduced or delayed tumor growth” value is recorded as “Four out of six”. The “in-tumor apoptosis (cleaved caspase-3 IHC)” value in data set [1] (2.5 mg/kg i.p. every 2 days, vs control group) is given as “significant increase in apoptosis”. Besides, in data set [1] (setting [11]), the “apoptotic bodies (H & E)” value is given as “increase in apoptotic bodies” and the “number of mitotic figures (H & E)” value is on record as “significant decrease”. Moreover, the “probability of animal survival” value in data set [1] (upon reaching tumor volume of 1500 mm^3, vs vehicle group) is listed as “significantly higher”. Besides, the “cells TIF-positive” value in [2] (3 μM 2 days, then 3 days after drug withdrawal) is around 31%. Further, the “cells TIF-positive” value in data set [2] (3 μM, 5 days continuous treatment) was around 34%. Further, the “number of cells with TIFs” value in [2] (3 μM, after two days) was around 25%. Besides, the “number of TIFs per cell and number of cells with TIFs” value in [2] (3 μM, from day 1 to day 3) is “markedly increased”. The TIF formation entry in data set [3] is “sustained TIF formation”. The “TIF formation (cells with TIFs)” value in data set [4] (3 μM, after 2 or 5 days treatment) is on record as “less than 3%”. In addition, in data set [4] (3 days after drug withdrawal), the “TIFs after drug withdrawal” value is recorded as “completely disappeared”. Also, the cell growth result in [5] (0.5 to 10 μM every three days for one week) was “inhibited cell growth in a dose-dependent manner”. The IC50 in data set [5] (Homo sapiens, all telomerase-positive cells including brain tumor cells (Table S2)) lay within 140 to 1450 nM. Also, the cell cycle populations entry in data set [6] was “increase in sub-G1 and G2/M cell populations”. For the same compound, in [7] (3 μM 3 days, then drug removed), the “effect on cell cycle progression after drug removal” value is “persisted several days after drug withdrawal”. Besides, the cell cycle progression result in data set [7] (3 μM, three days) is listed as “caused G2/M arrest”. In [7] (continuous treatment, 3 μM), the cell cycle populations result is “sharp increase in G2/M, >4n and sub-G1 cell populations”. Moreover, the sphere formation ability result in data set [8] was “total abolition of sphere formation ability”. Besides, the “animal deaths or weight loss” value in data set [9] (mice treated with 6-thio-dG, Mender et al.) is “no animal deaths or weight loss”. Moreover, the “toxic effects on hematologic counts, liver and kidney functions” value in [9] (mouse, in vivo) is given as “did not cause any toxic effects”.
